Reference: ChEMBL document CHEMBL1201862, “PubChem BioAssay data set” (2004)
Activity calls are given as the source filed them.

Assays:
[1] = Fluorescence-based cell-based high throughput dose response assay for inhibitors of the interaction of nucleotide-binding oligomerization domain containing 2 (NOD2) and the receptor-interacting serine-threonine kinase 2 (RIPK2).; format: functional; settings: Homo sapiens
[2] = test system: HEK293; experiment: cells; settings: Homo sapiens
[3] = test system: HEK293; experiment: cells; settings: Homo sapiens; remark: listed apart in the source
[4] = target: T1, Endoribonuclease toxin MazF (Escherichia coli K-12, UniProt P0AE70); experiment: substrate-only fluorescence increase artefacts – biochemical, single-stranded RNase substrate, counter-screen for MazEF activator project, dose response (AID 588502); format: functional
T1 sequence (P0AE70 whole entry): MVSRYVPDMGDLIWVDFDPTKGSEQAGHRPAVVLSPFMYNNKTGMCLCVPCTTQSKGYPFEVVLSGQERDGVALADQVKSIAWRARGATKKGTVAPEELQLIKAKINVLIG

[5] = target: T1, Endoribonuclease toxin MazF; experiment: activation of MazEF endoribonuclease cleavage – biochemical, fluorescence, single-stranded RNA substrate, uHTS hits, dose response (AID 588481); format: functional
[6] = Luminescence Cell-Based Dose Retest to Confirm Inhibitors of Cancer Stem Cells. [Related pubchem assays (depositor defined):AID2717, AID2721]; format: functional; settings: Homo sapiens
[7] = viability loss of HMLE_sh_eGFP cells – cell-based, luminescence, counter-screen for HMLE_sh_ECad selective toxicity project, dose response (AID 463074); format: functional, Homo sapiens;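 further: HMLE human mammary epithelial cells expressing control shRNA against eGFP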
[8] = blockers of HIV-1 envelope-mediated cell-cell fusion – cherry-pick, dose response (AID 652057); format: functional, cell-based
[9] = blockers of HIV-1 ZM109 envelope-driven cell-cell fusion – HeLa effector, CEM target cells, luciferase, cherry-pick, dose response (AID 652058); format: functional, cell-based;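 further: luciferase signal from HIV-1 Env mediated cell-cell fusion of effector and target cells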
[10] = HIV-1 AD8 envelope cell-cell fusion blockers – cherry-pick, dose response (AID 652062); format: functional, cell-based;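 further: luciferase signal from cell-cell fusion driven by HIV-1 clade B AD8 Env; potency is for inhibitors of fusion seen as a drop in luminescence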
[11] = off-target signal loss in HeLa-CEM21 co-culture – HeLa F-luc CTL cells, cherry-picked, counter-screen for HIV-1 Env fusion inhibitor project, dose response (AID 652040); format: functional, cell-based;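 further: potency for signal decrease marking cytotoxic or nonspecific inhibition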
[12] = target: T2, Apoptotic protease-activating factor 1 (Homo sapiens, UniProt O14727); experiment: SAR analysis of small molecule Activators of Apaf-1 in a Fluorescent assay.; format: functional; settings: read-out: EC50_Mean;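 further: caspase-3 cleavage of fluorogenic Rh110 DEVD substrate downstream of apoptosome activation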
T2 sequence (O14727 whole entry): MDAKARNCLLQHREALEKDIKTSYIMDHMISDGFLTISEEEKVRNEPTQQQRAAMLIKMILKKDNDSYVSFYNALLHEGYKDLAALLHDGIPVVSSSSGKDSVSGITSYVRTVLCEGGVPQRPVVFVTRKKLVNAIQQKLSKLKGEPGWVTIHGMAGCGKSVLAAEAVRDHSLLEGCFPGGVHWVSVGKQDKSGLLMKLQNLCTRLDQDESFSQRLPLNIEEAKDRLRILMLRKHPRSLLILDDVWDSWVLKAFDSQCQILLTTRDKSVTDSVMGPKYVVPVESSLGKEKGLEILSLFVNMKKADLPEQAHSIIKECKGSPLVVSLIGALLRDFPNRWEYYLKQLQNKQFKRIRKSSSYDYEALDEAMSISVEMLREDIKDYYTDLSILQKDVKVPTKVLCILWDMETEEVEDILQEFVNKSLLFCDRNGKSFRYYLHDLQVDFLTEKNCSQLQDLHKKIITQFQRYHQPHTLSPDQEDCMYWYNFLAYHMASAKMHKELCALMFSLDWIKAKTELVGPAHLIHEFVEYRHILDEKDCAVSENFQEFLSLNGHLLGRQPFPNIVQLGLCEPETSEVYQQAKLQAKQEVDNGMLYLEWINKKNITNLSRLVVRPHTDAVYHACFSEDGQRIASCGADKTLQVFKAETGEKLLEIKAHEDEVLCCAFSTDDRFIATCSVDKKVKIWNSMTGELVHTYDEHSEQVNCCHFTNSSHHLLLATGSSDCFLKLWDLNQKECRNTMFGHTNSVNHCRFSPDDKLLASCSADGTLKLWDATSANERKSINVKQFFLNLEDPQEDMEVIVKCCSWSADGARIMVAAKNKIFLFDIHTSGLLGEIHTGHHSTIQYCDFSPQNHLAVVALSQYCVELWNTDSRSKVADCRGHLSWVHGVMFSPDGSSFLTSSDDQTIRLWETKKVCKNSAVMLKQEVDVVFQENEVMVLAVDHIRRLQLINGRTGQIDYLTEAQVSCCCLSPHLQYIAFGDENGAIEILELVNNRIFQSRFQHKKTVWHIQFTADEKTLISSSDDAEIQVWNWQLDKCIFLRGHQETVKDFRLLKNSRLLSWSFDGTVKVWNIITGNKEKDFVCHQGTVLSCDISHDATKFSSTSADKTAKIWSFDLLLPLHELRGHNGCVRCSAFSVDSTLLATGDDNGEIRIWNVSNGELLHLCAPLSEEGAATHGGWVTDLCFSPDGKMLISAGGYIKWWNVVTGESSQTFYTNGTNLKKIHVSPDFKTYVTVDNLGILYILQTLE

[13] = target: CAAX prenyl protease 2 (Homo sapiens, UniProt Q9Y256); experiment: inhibition of Ras-converting CAAX protease Rce1 – biochemical, yeast membranes, quenched-peptide fluorescence, cherry-pick, dose response (AID 588849)
CAAX prenyl protease 2, sequence (Q9Y256 whole entry): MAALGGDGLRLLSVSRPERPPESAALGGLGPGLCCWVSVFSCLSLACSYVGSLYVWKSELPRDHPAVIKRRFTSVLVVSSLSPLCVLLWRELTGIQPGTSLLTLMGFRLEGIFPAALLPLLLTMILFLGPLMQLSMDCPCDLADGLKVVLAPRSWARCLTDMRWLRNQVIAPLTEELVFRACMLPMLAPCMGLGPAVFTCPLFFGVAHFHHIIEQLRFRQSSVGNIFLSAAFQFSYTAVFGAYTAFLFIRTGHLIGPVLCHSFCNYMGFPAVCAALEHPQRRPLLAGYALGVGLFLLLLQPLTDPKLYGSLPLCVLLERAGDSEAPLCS

[14] = test system: Vero; experiment: cells; format: functional; settings: Chlorocebus sabaeus
[15] = target: T3, Probable nicotinate-nucleotide adenylyltransferase (Staphylococcus aureus (strain N315), UniProt P65502); format: functional, Staphylococcus aureus subsp. aureus N315; settings: read-out: IC50_Mean;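 on IC50 Mean: confirmatory dose-response retesting of NadD inhibitor hits first found in an ultra-high-throughput screen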
T3 sequence (P65502 whole entry): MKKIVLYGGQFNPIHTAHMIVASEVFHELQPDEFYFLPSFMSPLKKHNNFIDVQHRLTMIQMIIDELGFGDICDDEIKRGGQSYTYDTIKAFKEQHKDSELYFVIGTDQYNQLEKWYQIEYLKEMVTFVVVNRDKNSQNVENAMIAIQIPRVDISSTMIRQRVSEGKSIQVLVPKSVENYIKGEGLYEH

[16] = target: T3, Probable nicotinate-nucleotide adenylyltransferase; format: functional, Staphylococcus aureus subsp. aureus N315
[17] = test system: CHO; experiment: CHO cell viability loss, potency – luminescence, cytotoxicity control for TLR9-MyD88 binding inhibitor project, dose response (AID 588339); format: functional, cell-based, hamster; settings: Cricetulus griseus;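 further: CHO cells stably coexpressing TLR9 and MyD88 fusions from primary screen; compound exposure lasted 48 hours before viability readout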
[18] = target: Beta Lactamase (Pseudomonas aeruginosa, UniProt Q932Y6); experiment: BLA reporter interference, concentration series – BLA reporter cells, FRET fluorescence, artefact control for TLR9-MyD88 binding inhibitor project, dose response (AID 588341); format: cell-based;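 further: cell based assay in CHO-K1 cells stably expressing beta-lactamase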
Beta Lactamase, sequence (Q932Y6 whole entry): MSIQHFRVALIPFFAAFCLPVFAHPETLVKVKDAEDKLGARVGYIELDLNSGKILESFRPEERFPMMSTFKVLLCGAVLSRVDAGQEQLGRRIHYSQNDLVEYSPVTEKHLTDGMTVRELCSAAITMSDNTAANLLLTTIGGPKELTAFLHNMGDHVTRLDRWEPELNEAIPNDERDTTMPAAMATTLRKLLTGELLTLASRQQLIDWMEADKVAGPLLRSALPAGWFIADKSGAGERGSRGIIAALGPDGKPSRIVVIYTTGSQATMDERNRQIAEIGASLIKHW

[19] = target: T4, Zinc finger protein mex-5 (Caenorhabditis elegans, UniProt Q9XUB2); experiment: potency of MEX-5 RNA-binding blockers – biochemical, C. elegans, fluorescence polarization, dose response (AID 1960)
T4 sequence (Q9XUB2 whole entry): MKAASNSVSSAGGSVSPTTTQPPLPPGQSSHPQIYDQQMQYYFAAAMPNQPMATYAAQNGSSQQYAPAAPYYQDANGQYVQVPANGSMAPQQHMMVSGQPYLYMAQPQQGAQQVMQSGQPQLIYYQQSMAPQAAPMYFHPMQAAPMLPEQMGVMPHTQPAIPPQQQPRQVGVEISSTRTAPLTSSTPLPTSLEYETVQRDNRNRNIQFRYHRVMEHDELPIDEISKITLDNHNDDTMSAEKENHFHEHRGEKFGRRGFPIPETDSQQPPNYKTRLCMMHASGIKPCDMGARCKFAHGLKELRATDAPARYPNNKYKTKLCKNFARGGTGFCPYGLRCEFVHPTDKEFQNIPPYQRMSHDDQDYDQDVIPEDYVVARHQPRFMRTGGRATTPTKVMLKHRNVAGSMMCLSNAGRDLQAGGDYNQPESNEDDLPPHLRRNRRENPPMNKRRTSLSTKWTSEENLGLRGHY

[20] = target: T5, Corticotropin-releasing factor receptor 2/Corticotropin-releasing factor-binding protein (Homo sapiens, UniProt P24387+Q13324); experiment: activators of CRF receptor 2 with binding protein – uHTS hits, confirmation (AID 602473); format: functional; settings: read-out: EC50_Mean
T5 sequence (Q13324 whole entry): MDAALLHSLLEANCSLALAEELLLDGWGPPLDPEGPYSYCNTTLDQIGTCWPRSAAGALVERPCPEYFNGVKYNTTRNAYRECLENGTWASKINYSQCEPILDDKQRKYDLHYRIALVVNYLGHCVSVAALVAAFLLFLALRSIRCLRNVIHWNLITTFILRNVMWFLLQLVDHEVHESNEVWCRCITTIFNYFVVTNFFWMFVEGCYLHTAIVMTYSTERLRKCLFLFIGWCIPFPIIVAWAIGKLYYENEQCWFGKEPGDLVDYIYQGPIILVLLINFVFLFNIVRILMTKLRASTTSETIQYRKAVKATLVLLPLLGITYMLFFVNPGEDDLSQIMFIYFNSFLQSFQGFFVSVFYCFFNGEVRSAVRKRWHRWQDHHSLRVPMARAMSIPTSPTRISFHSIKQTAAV
T5 sequence (P24387 whole entry): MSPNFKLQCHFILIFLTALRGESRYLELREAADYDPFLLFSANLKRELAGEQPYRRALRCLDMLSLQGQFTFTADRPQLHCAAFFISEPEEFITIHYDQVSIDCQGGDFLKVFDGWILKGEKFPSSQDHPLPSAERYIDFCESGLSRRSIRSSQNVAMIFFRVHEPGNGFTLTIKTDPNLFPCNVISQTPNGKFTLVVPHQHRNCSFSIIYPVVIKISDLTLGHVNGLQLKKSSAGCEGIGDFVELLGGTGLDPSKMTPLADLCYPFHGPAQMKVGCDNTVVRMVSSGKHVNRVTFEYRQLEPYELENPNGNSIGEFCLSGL

[21] = target: T6, RNA-binding protein pos-1 (Caenorhabditis elegans, UniProt G5EF15); experiment: disruptors of C. elegans POS-1 RNA interaction – biochemical, fluorescence polarization, dose response (AID 1964);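 further: purified POS-1 fused to maltose binding protein made in E. coli; potency of compounds blocking POS-1 binding to fluorescent RNA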
T6 sequence (G5EF15 whole entry): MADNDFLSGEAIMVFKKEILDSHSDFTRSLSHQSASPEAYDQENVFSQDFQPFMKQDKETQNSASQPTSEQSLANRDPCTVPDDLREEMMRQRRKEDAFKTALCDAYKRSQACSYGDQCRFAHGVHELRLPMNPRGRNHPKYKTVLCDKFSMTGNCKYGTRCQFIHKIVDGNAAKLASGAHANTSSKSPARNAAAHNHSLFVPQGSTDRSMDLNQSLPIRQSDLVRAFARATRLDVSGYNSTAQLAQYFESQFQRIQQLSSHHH

SMILES: O=[N+]([O-])c1ccc(Sc2ccncn2)c([N+](=O)[O-])c1
- IC50 [1]: 7.56 µM (active)
- EC50 [2]: > 59.6 µM (inactive)
- EC50 [3]: > 59.6 µM (inactive)

SMILES: CN(N=Cc1ccc([N+](=O)[O-])cc1)c1ccccn1
- EC50 [4]: 37.8 µM (inactive)
- EC50 [5]: 51.8 µM (inactive)

SMILES: COc1cccc(-c2sc3ccc(OC)cc3c2-c2ccc(OCCN3CCOCC3)cc2)c1
- AC50 [6]: 2.09 µM (active)
- AC50 [7]: 3.73 µM (inconclusive)

SMILES: CCN(C[C@H]1N[C@@](CC)(C(=O)OC)[C@H]2C(=O)N(Cc3ccccc3)C(=O)[C@@H]12)S(=O)(=O)c1ccc(C)cc1
- AC50 [8]: 2.36 µM (active)
- AC50 [9]: 2.37 µM (active)
- AC50 [10]: 4.32 µM (active)
- EC50 [2]: > 59.6 µM (inactive)
- AC50 [11]: 3.4 µM (active)
- EC50 [3]: > 59.6 µM (inactive)

SMILES: O=C(O)[C@@H]1COC(c2ccc(F)cc2F)=N1
- EC50 [12]: > 100 µM (inactive)

SMILES: CCN(CC)c1ccc(/C=N/NC(=O)C(O)(c2ccccc2)c2ccccc2)o1
- AC50 [13]: > 100 µM (inactive)

SMILES: COc1cc(/C=C/c2ccc3c(Br)cc(Br)c(O)c3n2)ccc1O
- CC50 [14]: 13.4 µM (active)
- IC50 [15]: 44.9 µM (active)
- IC50 [16]: 10.1 µM (active)
- IC50 [17]: 7.79 µM (active)
- IC50 [18]: 7.68 µM (active)

SMILES: COc1ccc(C(=O)c2sc3nc(C)cc(-c4cccs4)c3c2N)cc1
- EC50 [19]: 11 µM (active)
- IC50 [17]: > 49.7 µM (inactive)
- EC50 [20]: 6.58 µM (active)
- IC50 [18]: 3.85 µM (active)
- EC50 [21]: 16.9 µM (active)
